Results taken from patent US7384656B2, “Anti-allergy composition and related method” (Access Business Group International LLC, priority 2004, dated 2008).

Key:
Type in all cases: cell-based
[1] = tested on: IgE receptor (FcεRIα) on RBL-2H3 cells; assay: IgE receptor expression on RBL-2H3 cells (anti-FcεRIα cell ELISA normalized to MTT viability); conditions: 100 μg/ml
Protocol: The methodology used to obtain the results of FIG. 1 will now be described. First, RBL-2H3 cells, available from ATCC (American Type Culture Collection) of Manassas, Va., were plated in 96 well plates at 3×10^4/well. Following adherence to the wells, the cells were exposed to the sample combinations of ingredients listed in Table I, each combination referred to as a “sample.” Stock solutions of all samples were prepared in a solution of DMSO, ethanol, and water present in a ratio of 5:3:2 at 100 mg/ml. […] Duplicate plates of each sample were prepared so that viability could be determined multiple times for each sample, with the results of the multiple samples averaged following treatment of the cells. The plates were incubated an additional 48 hours. To measure IgE-receptor expression, the cells were fixed for 2 hours with 1% gluteraldehyde. Following fixation, the cells were washed twice with PBS-Tween 20 (0.01%), available from Aldrich of Milwaukee, Wis. Protein binding sites were blocked for 2 hours with 2% non-fat dry milk in PBS (Phosphate Buffer Saline buffered at pH 7.3). The cells were washed twice. The primary antibody, Rabbit anti-FcεRIα, available from Upstate Group, Inc., Lake Placid, N.Y., was added to the wells and diluted 1:4000 with 0.2% BSA (Bovine Serum Albumin). Following a 2 hour incubation, the wells were washed 5× with PBS-Tween 20 (0.01%) solutions. The secondary antibody, Goat anti-rabbit IgG-peroxidase, available from Sigma-Aldrich of St. Louis, Mo., was added to the wells at 1:20000 with 0.2% BSA. Following a 1 hour incubation the wells were washed five times. 100 μliters (microliters) of TMB (3,3′,5,5±Tetramethyl benzidine dihydrochloride) Substrate, available from Chemicon International of Temecula, Calif., was added to the wells. Subsequent color development was stopped by the addition of a sufficient amount, H2SO4 (for example, 100 μliters at 1 Normal). For each of the multiple samples of the combination, the OD450 (Optical Density measured at a wavelength of 450 nanometers) was read on a plate reader. Continuing with a description of the methodology to obtain the data in FIG. 1, the viability of the cells was next determined by incubating the cells in the second plate with MTT in a concentration of 1 mg/ml for 3 hours. The reduced MTT was extracted with 70% isopropanol and the OD540 (Optical Density at a wavelength of 540 nanometers) was read for each of the multiple samples.

[2] = tested on: PGD2 release, RBL-2H3 cells; assay: PGD2 release from IgE-sensitized, DNP-BSA stimulated RBL-2H3 cells (ELISA); conditions: 10 μg/ml
Protocol: (§1) The methodology used to obtain the results of FIG. 9 will now be described. First, RBL-2H3 cells, available from ATCC (American Type Culture Collection) of Manassas, Va., were plated in 24 well plates at 5×10^4/well. Following adherence, the cells were exposed to the ingredients or combination of ingredients noted in FIG. 9, also referred to as samples. The samples were used at the concentrations noted in Table VI. Stock solutions of all samples were prepared in a solution of DMSO, ethanol, and water present in a ratio of 5:3:2 at 100 mg/ml. Each sample was then diluted in media to the final concentration. The cells were then incubated overnight with the samples. The following day a mouse anti-dinitrophenyl (DNP) IgE antibody, available from Sigma of St. Louis, Mo., was added to the cells at a final concentration of 1 ng/ml. The cells were incubated for 1.5 hr at 37° C. to allow binding of the IgE molecule to the cellular IgE receptor via the constant region of the antibody. Following this incubation period, the cells were washed twice. A solution containing DNP conjugated to BSA (DNP-BSA), available from Calbiochem of San Diego, Calif., was added to the cells at 0.5 ng/ml. […] Next, the measured OD450 data from the ELISA was inputted into a calibration graph to determine the amount by which histamine was reduced relative to an untreated control sample. […]

[3] = tested on: LTC4 release, RBL-2H3 cells; assay: LTC4 release from IgE-sensitized, DNP-BSA stimulated RBL-2H3 cells (ELISA); conditions: 1 μg/ml
Protocol: as §1

O=c1cc(-c2ccc(O)c(O)c2)oc2cc(O)cc(O)c12 [Luteolin]
Percent Control, IgE Receptor Expression (IgE-R) (Table VIII) [1]: about 90% | effect on IgE receptor expression, in words (FIG. 7) [1]: significant effect | Percent Control IgE-Receptor (Table IV) ([1]; relative to untreated control cells): 82% | Percent Control, IgE Receptor Expression (IgE-R) (Table VIII) ([1]; listed as Luteolin from Perilla seed): 90.1% | Percent Control of PGD2 Release (Table VI) [2]: 68% | Percent Control LTC4 Release (Table VI) [3]: 157%
